Measured values published in the supplement of paper PMC10307832.

Columns and labels:
Experiment in all cases: relative viability (nuclei count vs DMSO), 5 days (fraction); higher = more cells survive
[1] = compound: CCN(CCO)CCCC(C)Nc1ccnc2cc(Cl)ccc12 [Hydroxychloroquine] + O=C(CCCCCCC(=O)Nc1ccccc1)NO [Vorinostat] (partner 1 µM)
Method in brief: (§1)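 The day after seeding in 1536-well plates, lung cancer cell lines were treated by pin tool with a single drug, or with a fixed anchor-drug dose together with five library-drug doses (not always all listed) in √10 steps. After 5 days, a combined fix-and-stain solution (final 0.05% Triton X-100, 1% formaldehyde, 1 ug/ml Hoechst) was added. Nuclei counted on 4× images gave relative viability as treated counts over vehicle counts, reported as the median of duplicate plates.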

[2] = compound: CCN(CCO)CCCC(C)Nc1ccnc2cc(Cl)ccc12 [Hydroxychloroquine] + Nc1nc2[nH]cc(CCc3ccc(C(=O)N[C@@H](CCC(=O)O)C(=O)O)cc3)c2c(=O)[nH]1 [Pemetrexed] (partner 0.2 µM)
Method in brief: as §1

[3] = compound: CCN(CCO)CCCC(C)Nc1ccnc2cc(Cl)ccc12 [Hydroxychloroquine] + Cc1nc(Nc2ncc(C(=O)Nc3c(C)cccc3Cl)s2)cc(N2CCN(CCO)CC2)n1 [Dasatinib] (partner 0.075 µM)
Method in brief: as §1

[4] = compound: CCN(CCO)CCCC(C)Nc1ccnc2cc(Cl)ccc12 [Hydroxychloroquine] + CC(=O)c1c(C)c2cnc(Nc3ccc(N4CCNCC4)cn3)nc2n(C2CCCC2)c1=O [Palbociclib] (partner 0.5 µM)
Method in brief: as §1

Row | Cell Line | relative viability ([1]; first compound 0.5 µM) | relative viability ([1]; first compound 1.581 µM) | relative viability ([1]; first compound 5 µM) | relative viability ([1]; first compound 15.81 µM) | relative viability ([1]; first compound 50 µM) | relative viability ([2]; first compound 0.5 µM) | relative viability ([2]; first compound 1.581 µM) | relative viability ([2]; first compound 5 µM) | relative viability ([2]; first compound 15.81 µM) | relative viability ([2]; first compound 50 µM) | relative viability ([3]; first compound 0.5 µM) | relative viability ([3]; first compound 1.581 µM) | relative viability ([3]; first compound 5 µM) | relative viability ([3]; first compound 15.81 µM) | relative viability ([3]; first compound 50 µM) | relative viability ([4]; first compound 0.5 µM) | relative viability ([4]; first compound 1.581 µM) | relative viability ([4]; first compound 5 µM) | relative viability ([4]; first compound 15.81 µM) | relative viability ([4]; first compound 50 µM)
1 | NCI-H460 | 0.733 | 0.865 | 0.812 | 0.815 | 0.83 | 0.0632 | 0.055 | 0.0674 | 0.0549 | 0.0607 | 0.576 | 0.481 | 0.457 | 0.527 | 0.599 | 0.129 | 0.148 | 0.149 | 0.115 | 0.227
2 | NCI-H520 | 0.915 | 0.642 | 0.743 | 0.77 | 0.715 | 0.76 | 0.729 | 0.596 | 0.657 | 0.798 | 0.196 | 0.223 | 0.213 | 0.184 | 0.196 | 0.232 | 0.205 | 0.231 | 0.199 | 0.239
3 | NCI-H522 | 0.832 |  | 0.882 | 0.904 | 1.01 | 1.02 |  | 1.39 | 0.974 | 0.98 | 0.933 | 0.942 | 0.755 | 1.03 | 0.913 | 0.822 |  | 1.03 | 0.986 | 0.798
4 | NCI-H647 | 0.662 | 0.704 | 0.603 | 0.616 | 0.612 | 0.186 | 0.176 | 0.202 | 0.196 | 0.182 | 0.226 | 0.214 | 0.168 | 0.194 | 0.184 | 0.418 | 0.439 | 0.41 | 0.282 | 0.366
5 | NCI-H650 | 0.478 | 0.432 | 0.397 | 0.42 | 0.478 | 0.979 | 0.868 | 0.966 | 1.06 | 0.889 | 0.501 | 0.405 | 0.446 | 0.458 | 0.479 | 0.341 | 0.288 | 0.3 | 0.35 | 0.311
6 | NCI-H661 | 0.827 | 0.828 | 0.782 | 0.802 | 0.782 | 0.962 | 0.904 | 0.91 | 0.877 | 0.872 | 0.841 | 0.872 | 0.764 | 0.722 | 0.894 | 0.404 | 0.364 | 0.413 | 0.377 | 0.403
7 | NCI-H838 | 0.721 | 0.667 | 0.803 | 0.716 | 0.721 | 0.238 | 0.248 | 0.264 | 0.243 | 0.253 | 0.256 | 0.258 | 0.296 | 0.242 | 0.237 | 0.237 | 0.197 | 0.242 | 0.194 | 0.22
8 | NCI-H1355 | 0.657 | 0.582 | 0.631 | 0.63 | 0.657 | 1.11 | 0.997 | 0.906 | 1.05 | 1.14 | 0.74 | 0.59 | 0.693 | 0.705 | 0.875 | 0.41 | 0.365 | 0.392 | 0.387 | 0.379
9 | NCI-H1395 | 0.756 | 0.716 | 0.606 | 0.743 | 0.674 | 0.83 | 0.936 | 0.717 | 0.793 | 0.779 | 0.424 | 0.402 | 0.401 | 0.391 | 0.405 | 0.652 | 0.556 | 0.626 | 0.608 | 0.563
10 | NCI-H1437 | 0.853 | 0.862 | 0.85 | 0.844 | 0.891 | 0.326 | 0.314 | 0.324 | 0.33 | 0.321 | 0.371 | 0.493 | 0.375 | 0.429 | 0.509 | 0.291 | 0.328 | 0.328 | 0.295 | 0.336
11 | NCI-H1650 | 0.48 | 0.593 | 0.634 | 0.663 | 0.608 | 0.337 | 0.331 | 0.342 | 0.397 | 0.346 | 0.425 | 0.357 | 0.241 | 0.296 | 0.303 | 0.291 | 0.341 | 0.317 | 0.323 | 0.355
12 | NCI-H1651 | 0.582 | 0.589 | 0.583 | 0.579 | 0.493 | 0.628 | 0.626 | 0.602 | 0.597 | 0.449 | 0.421 | 0.554 | 0.427 | 0.436 | 0.396 | 0.536 | 0.5 | 0.517 | 0.567 | 0.54
13 | NCI-H1666 | 0.991 | 0.943 | 1.01 | 0.92 | 0.936 | 0.878 | 0.765 | 0.846 | 0.755 | 0.844 | 0.845 | 0.771 | 0.815 | 0.793 | 0.765 | 0.651 | 0.67 | 0.653 | 0.646 | 0.622
14 | NCI-H1734 | 0.856 | 0.697 | 0.787 | 0.866 | 0.826 | 0.46 | 0.398 | 0.408 | 0.427 | 0.427 | 0.399 | 0.374 | 0.506 | 0.452 | 0.504 | 0.316 | 0.296 | 0.37 | 0.305 | 0.362
15 | NCI-H1755 | 0.79 | 0.656 | 0.778 | 0.734 | 0.737 | 0.573 | 0.426 | 0.42 | 0.386 | 0.438 | 0.498 | 0.381 | 0.422 | 0.392 | 0.394 | 0.459 | 0.398 | 0.445 | 0.443 | 0.475
16 | NCI-H1793 | 0.791 | 0.606 | 0.548 | 0.638 | 0.804 | 0.982 | 0.913 | 0.753 | 0.628 | 0.632 | 0.464 | 0.36 | 0.423 | 0.413 | 0.476 | 0.331 | 0.311 | 0.372 | 0.325 | 0.312
17 | NCI-H1915 | 0.521 | 0.456 | 0.48 | 0.549 | 0.5 | 0.531 | 0.514 | 0.505 | 0.524 | 0.521 | 0.337 | 0.281 | 0.305 | 0.331 | 0.305 | 0.532 | 0.495 | 0.559 | 0.568 | 0.542
